Data set [1] deals with HIV-1 clone NL4.3 (subtype B). In words: HIV-1 NL4.3 (subtype B) infection of MT-4 cells, Cell Titer Blue readout. It is filed as cell-based. As to the method:
(§1) Human PMBCs were incubated with 100 U recombinant IL-2 (Sigma-Aldrich) and 5 µg/mL phytohemagglutinin-P (PHA-P) (Difco) for 5 days at 37°C. MT-4 cells (1×10^6) or treated PBMCs (1.2×10^8) were infected with HIV-1 clone NL-4.3 or ZM247Fv-1 (MOI of 0.001) by spinoculation (1200 g at room temperature for 2 h). Uninfected cells were used as negative control and were also subjected to the spinoculation process. After spinoculation, supernatants were discarded and cells were resuspended in 10 mL of R10. Cells from each condition were then added to wells (96-well plate) containing serial dilutions of each ISD. For MT-4 cells, each dilution was done in sextuplicates and, for PBMCs, in triplicates. Cells were also incubated with different concentrations of ZDV as positive control. After 5 days in culture, Cell Titer Blue was added to each well and cells were incubated for additional 24 h. The median effective concentration for each drug is defined as EC50. In parallel with the infectivity assay, the same cell types were treated with different concentrations of drugs to determine their cytotoxicity, following the protocol described above. Drug concentration that results in a 50% decrease in viable cells is defined as the CC50 for each compound. EC50 was calculated according to Spearman-Karber and therapeutic index was defined by the ratio between CC50 and EC50 [55].
(§2) All statistical analyses were performed using program GraphPism version 6.0. Titrations for TCID50 infectivity were calculated by the Spearman-Karber method. Dose response curves to ISDs with HIV-1 subtype B and C were done using non-linear regression and were fit to the Hill equation.
A general note: The colour change of resazurin is a common sign of viable cells or microbes.

Data set [2] relates to HIV-1 clone ZM247Fv-1 (subtype C). Kind of data set: HIV-1 ZM247Fv-1 (subtype C) infection of MT-4 cells, Cell Titer Blue readout. The format is cell-based. As to the method: as §1, §2
Data set [3] deals with HIV-1 clone NL4.3 (subtype B). In words: HIV-1 NL4.3 (subtype B) infection of human PBMCs, Cell Titer Blue readout. The format is cell-based. The method, then:
as §1, §2

A short description of data set [4]: Cytotoxicity (CC50) in MT-4 cells. It is filed as cell-based. The settings on record: human, Subtype B (X4). As to the method: (§3) Cytotoxicity of ISDs was evaluated in J-Lat (clones 9.2 and 10.6) and PHA-activated human PBMCs. Cells were added to wells in a 96-well plate in the presence of various concentrations of ISDs, PMA or prostratin in sextuplicates for 24 and 72 h. Cell viability was determined using the CellTiter-blue fluorescence Cell Viability Assay (Promega) following the manufacturer's instruction.
as §1

Data set [5] can be described thus: Cytotoxicity (CC50) in human PBMCs. The format is cell-based. The settings on record: human PBMCs activated with IL-2 and PHA-P; Human PBMC, Subtype C (R5). As to the method:
as §3, §1

A further data set relates to HIV-1 NL4.3-Luc. Kind of data set: Luciferase expression in CD4+ T cells pre-treated and infected with NL4.3-Luc. The settings on record: cells pre-treated 24 h, infected with NL4.3-Luc MOI 0.1. It is filed as cell-based. As to the method: CD4+ T cells were isolated by negative selection from human PBMCs (2.5×10^8 cells) using magnetic beads (Miltenyi) and incubated with 5 µg/mL PHA-P and 100 U IL-2 for 5 days. Cells were then seeded in 6-well plates (10^6 cells per well) and treated with different concentrations of ING-B. After 24 h, cells were infected with HIV-1 NL-Luc (MOI of 0.1) by spinoculation. Infected cells were kept at 37°C for 24 h and then collected for luciferase activity evaluation as described above.

The next data set has as its system human PBMCs. Kind of data set: Cellular proliferation assay (CFSE) in human PBMCs. Particulars: CFSE-stained human PBMC, 1, 5 or 10 µM, 8 days. The format is cell-based. As to the method:
Human PBMCs were stained with CFSE following manufacturer's instructions (Sigma-Aldrich). After staining, cells were washed twice in PBS and incubated with ING-B (1, 5 or 10 µM), 5 µg/mL PHA-P plus 10 U/mL IL-2 (as positive control), or DMSO 1% (as negative control). Cell proliferation was assessed for 8 days after stimulation, and relative proliferation index was calculated for all conditions.

The test system of the next data set is MT-4 cells. In words: Cell cycle analysis (propidium iodide) in MT-4 cells. The format is cell-based. The settings on record: 48 h. The method, then: Human PBMCs and MT-4 cells were incubated at 37°C with different concentrations of ING-B for 48 h. After incubation, cells were collected, washed twice with PBS, and stained with 200 µl of propidium iodide (50 µg/mL, diluted in Hanks buffer with 1 mg/mL RNAse and 0.2% Triton X-100) for 15 min on ice before cytometry analysis.

In data set [6] the test system is latent HIV in CD4+ T cells from virally suppressed patients. Kind of data set: HIV pol RNA (RT-qPCR) in CD4+ T cells from HIV+ HAART-treated patients. It is filed as cell-based, human. Particulars: CD4+ T cells of five HIV+ HAART-treated patients, 1 µM, 24 h. An excerpt:
Whole blood from five HIV+ patients at the Hospital Universitário Gaffrée e Guinle (Rio de Janeiro, Brazil) was collected for reactivation experiments. All individuals enrolled in the study voluntarily and provided written informed consent. Patients presented undetectable viral load (<50 copies/mL), more than 500 CD4+ T cells/mm^3 and have been HAART-treated for at least 10 months (Table 1). PBMCs where isolated following a Ficoll-Paque Plus protocol (GE Healthcare, UK). CD4+ T cells were selected by magnetic beads as described above, and 10^6 cells were incubated in R10 containing 1 µM of the testing compounds (ING-B, prostratin or PMA). DMSO 1% was used as negative control. The antiretroviral EFV (10 µM) was added to all conditions to prevent viral spread. After 24 h, cells were collected for RNA isolation using the All Prep Qiagen kit (Qiagen), as instructed by the manufacturer.
Total RNA from CD4+ T cells was analyzed by RT-qPCR using primers and probe (Life Technologies) specific for the HIV-pol region, as following: forward primer Pol-F (5'-[…] TTT T-3'), reverse primer Pol-R (5'-[…]-3') and a minor groove binder (MGB) probe Pol-Pb (5'-VIC-ATC CCC CCT TTT CTT T-3'). […]
For orientation: Quantitative PCR measures a nucleic acid by following its amplification.

Details of data set [7]: method as in earlier work. Particulars: dogs, oral dosing; ref personal communication from Aurigon Life Science – Tutzing, Germany; cited from earlier work.
Where [8] appears, read: Human immunodeficiency virus 1, MT4.

What is called EC50 is the concentration that produces a half-maximal response. Lower therefore signals a more potent agent. A word on the CC50: it is the concentration at which the toxic effect on the cells reaches its halfway point.

Take `CCCCCC(=O)O[C@H]1C(C)=C[C@]23C(=O)[C@@H](C=C(CO)[C@@H](O)[C@]12O)[C@H]1[C@@H](C[C@H]3C)C1(C)C` [ING-B, ingenol-3-hexanoate]: the EC50 in data set [1] (setting [8]) came out at 22 nM; in data set [2] (setting [8]) it was 25 nM; in data set [3] (Human immunodeficiency virus 1, PBMC) it was 56 nM. Further, the “TI (CC50/EC50)” value is recorded as 1272 in data set [1] (MT-4 cells, Subtype B (X4)); 1120 in data set [2] (MT-4 cells, Subtype C (R5)); 714.3 in data set [3] (Human PBMC, Subtype B (X4)). Moreover, the CC50 at 5 days in data set [4] worked out at 28 µM; in data set [5] it was 40 µM. For the same compound, the “levels of HIV-driven luciferase” value with HIV-1 NL4.3-Luc was “dramatically reduced”. Besides, in the data set on human PBMCs, the cell proliferation entry was “no evidence that ING-B caused cell proliferation”. Moreover, the cell cycle phases result with MT-4 cells is “did not alter cell cycle phases”. Besides, in data set [6], the “HIV transcription (in words)” value is reported as “levels similar to PMA treatment”. Besides, the no-observed-adverse-effect level in [7] was 4 mg/kg/day.

The values above are taken from publication PMC4020785 (PLoS ONE, 2014).
